Measurements published in patent publication US11597708B2, “Inhibitors of heat shock factors and uses thereof” (HSF Pharmaceuticals SA, priority 2016, dated 2023).
Counter-ions that a name gives are not always drawn. Like-named read-outs stand apart in the source and are kept apart here.

How the values were obtained:
HSF1 = target: T1, HSF1 (Homo sapiens, UniProt Q00613); test: Z74 cell-based reporter assay: heat-induced RLuc expression controlled by endogenous HSF1; details: for IC50: inhibition of HSF1 activity [RLuc]; for inhibition at 12.5 µM: read-out: Inhibition of HSF1 activity at 12.5 μM IHSF [RLuc] (%); for inhibition at 25 µM: read-out: Inhibition of HSF1 activity at 25 μM IHSF [RLuc] (%)
T1 construct: functionally linked to an hsp70b promoter and therefore controlled by endogenous HSF1; endogenous in cells; host or cells: HeLa cells / HeLa-derived cell line Z74
T1 sequence (Q00613 1-529): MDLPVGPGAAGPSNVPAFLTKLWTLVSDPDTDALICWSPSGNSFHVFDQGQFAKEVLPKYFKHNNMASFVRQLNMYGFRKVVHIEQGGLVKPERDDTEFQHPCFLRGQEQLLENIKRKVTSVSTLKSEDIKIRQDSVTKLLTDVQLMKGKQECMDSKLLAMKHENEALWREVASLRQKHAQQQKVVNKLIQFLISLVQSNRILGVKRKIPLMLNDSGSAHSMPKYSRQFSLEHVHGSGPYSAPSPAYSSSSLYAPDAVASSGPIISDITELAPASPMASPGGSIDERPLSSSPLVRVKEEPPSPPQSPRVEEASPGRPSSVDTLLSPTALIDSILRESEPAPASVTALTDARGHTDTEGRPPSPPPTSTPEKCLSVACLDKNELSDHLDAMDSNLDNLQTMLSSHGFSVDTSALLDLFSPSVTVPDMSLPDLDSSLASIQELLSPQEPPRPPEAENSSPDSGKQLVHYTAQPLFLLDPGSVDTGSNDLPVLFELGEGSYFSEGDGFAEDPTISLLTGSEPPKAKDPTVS
Excerpt: For screening this sublibrary, a cell-based assay was developed. We opted for a cell-based assay, because a cell-free assay would have had to be a DNA-binding assay. Such an assay would have limited discovery to molecules capable of interfering with the DNA-binding function of HSF1. This was thought to be too narrow a focus, considering that three of the four cavities identified in the HSF1 DNA-binding domain are not near the DNA interaction region. A straightforward cell-based assay, in which a HSF1-responsive gene would be assayed, was considered likely to be over-inclusive. Compounds would be scored as hits that inhibit any factor that is involved in HSF1 activation or prevents HSF1 deactivation. These factors include protein kinases, activators of protein phosphatases, factors affecting HSF1 mRNA stability, HSP90, HDAC6, etc. For developing a more discriminating cell-based assay, advantage was taken of the modular nature of HSF1. […] The cell-based assay developed (see below for the particular format employed) compared transactivation by wild type HSF1 and chimeric HSF1 in cells exposed to an HSF1-activating heat treatment in the presence of a sublibrary compound. A compound was scored as a hit, if it inhibited the activity of wild type HSF1 but not of chimeric HSF1.
The cell-based assay made use of HeLa-derived cell line Z74 that stably contains a gene for chimeric transcription factor LexA-(human) HSF1 under the control of a CMV early promoter, a firefly luciferase (flue) gene driven by a promoter responsive to the latter chimeric transcription factor and a Renilla luciferase (rluc) gene functionally linked to an hsp70b promoter and therefore controlled by endogenous HSF1 (FIG. 1A). As is shown in FIGS. 1B & C, the reporter genes responded similarly to heat dose, i.e., their activation depended on both duration of heat exposure and temperature of the exposure. […] Depletion of HSF1 (and LexA-HSF1) by siRNA supported the notion that this stress regulation is mediated by HSF1 (and LexA-HSF1). Therefore, the Z74 line was well suited for use in a screening assay aimed at discovering molecules that inhibit heat-induced HSF1 activity through interaction with the transcription factor's DNA-binding domain.
The compounds of the afore-mentioned biased sublibrary were screened in cell line Z74 at 12.5 and 25 μM concentrations. Typically, Z74 cultures in 96-well plates were exposed to compound or vehicle for 2 h, heat-treated at 43.0° C. for 30 min, and incubated further for 6 h at 37° C. to allow for accumulation of the luciferases. RLuc and FLuc activities were determined, typically using the Dual-Glo® Luciferase Assay System (Promega Corp., Madison, Wis.), and reading luciferase light counts in a Wallac Microbeta Trilux-1450 Luminometer (PerkinElmer, Waltham, Mass.). IHSF 001 was one of two library compounds that inhibited RLuc expression but not FLuc expression in heat-treated Z74 cells (Table 1; FIG. 2A). Therefore, IHSF 001 is an inhibitor of HSF1 function that specifically acts through the HSF1 DNA-binding domain. […] A corroborating experiment utilized a cell line containing an hsp70b promoter-driven fluc gene. […] IHSF 001 is (E)-ethyl 4-oxo-4-(thiazol-2-ylamino)but-2-enoate. The compound can be obtained from commercial sources (e.g., AKE-PB-90340538, Akos).

HSE DNA-binding activity = target: T2, HSE DNA-binding activity (Homo sapiens, UniProt Q00613); test: EMSA using extracts of heat-treated HeLa cells, in the presence of IHSF; assay type: biochemical; details: extracts of HeLa cells heat-treated at 43° C. for 30 min; concentrations as high as about 0.5 mM
T2 construct: functionally linked to an hsp70b promoter and therefore controlled by endogenous HSF1; endogenous in cells; host or cells: HeLa cells / HeLa-derived cell line Z74
T2 sequence (Q00613 1-529): T1 sequence (Q00613 1-529)
Experimental: Electrophoretic mobility shift assays (EMSA) using a radiolabeled HSE DNA probe were carried out to assess HSF1 DNA-binding activity in extracts of heat-treated (43° C./30 min) HeLa cells that had been exposed to different concentrations of compounds 058 or 115 (FIG. 3A, top panels). […] HSF1 degradation correlated well with the observed decrease in DNA-binding activity. Therefore, HSF1 degradation provides a sufficient explanation for the reduced HSE DNA-binding activity in cells treated with IHSF 058. […] EMSA were also carried out using extracts of HeLa cells that had been heat-treated at 43° C. for 30 min.

[1] = Z74 cells, 12.5 μM IHSF, negative values marked *: compound enhanced rLuc activity
[2] = Z74 cells, 25 μM IHSF, 2 h exposure, 43° C. 30 min, 6 h at 37° C.

Compound | IC50 (HSF1; Z74 cells) | inhibition at 12.5 µM (HSF1; [1]) | inhibition at 25 µM (HSF1; [2]) | HSE DNA-binding activity (EMSA) in the presence of IHSF (HSE DNA-binding activity) | inhibition at 12.5 µM (HSF1) | inhibition at 25 µM (HSF1)
CCOC(=O)/C=C/C(=O)Nc1nc(C)cs1 [IHSF 011, (E)-3-(4-Methyl-thiazol-2-ylcarbamoyl)-acrylic acid ethyl ester] | 7 µM | 69% | 83% | no reduction |  | 
CCOC(=O)/C=C/C(=O)Nc1ccnc(-c2ccccc2)c1 [IHSF 049, (E)-3-(2-Phenyl-pyridin-4-ylcarbamoyl)-acrylic acid ethyl ester] |  | 53% | 85% | no reduction |  | 
CCOC(=O)/C=C/C(=O)Nc1ccnc2ccccc12 [IHSF 050, (E)-3-(Quinolin-4-ylcarbamoyl)-acrylic acid ethyl ester] |  | 40% | 61% | no reduction |  | 
CCOC(=O)/C=C/C(=O)Nc1nc(C)c(-c2ccccc2)s1 [IHSF 051, (E)-3-(4-Methyl-5-phenyl-thiazol-2-ylcarbamoyl)-acrylic acid ethyl ester] | 9.6 µM | 72% | 92% | no reduction |  | 
CCOC(=O)/C=C/C(=O)Nc1nc(C)c(C)s1 [IHSF 052, (E)-3-(4,5-Dimethyl-thiazol-2-ylcarbamoyl)-acrylic acid ethyl ester] | 7.4 µM | 57% | 71% | no reduction |  | 
CCOC(=O)/C=C/C(=O)Nc1ncc(C#N)s1 [IHSF 057, (E)-3-(5-Cyano-thiazol-2-ylcarbamoyl)-acrylic acid ethyl ester] |  | 40% | 65% | no reduction |  | 
CCOC(=O)/C=C/C(=O)Nc1ccnc(-c2cccc(C)c2)c1 [IHSF 080, (E)-3-(2-m-Tolyl-pyridin-4-ylcarbamoyl)-acrylic acid ethyl ester] |  | 55% | 71% |  |  | 
CCOC(=O)/C=C/C(=O)Nc1ccnc(-c2ccc(C)cc2)c1 [IHSF 081, (E)-3-(2-p-Tolyl-pyridin-4-ylcarbamoyl)-acrylic acid ethyl ester formic acid salt] |  |  |  |  | 42% | 65%
CCOC(=O)/C=C/C(=O)Nc1cc(C)nc(C)c1 [IHSF 082, (E)-3-(2,6-Dimethyl-pyridin-4-ylcarbamoyl)-acrylic acid ethyl ester] |  | 58% | 91% |  |  | 
CCOC(=O)/C=C/C(=O)Nc1ccncc1C [IHSF 083, (E)-3-(3-Methyl-pyridin-4-ylcarbamoyl)-acrylic acid ethyl ester] |  | 24% | 34% |  |  | 
CCOC(=O)/C=C/C(=O)Nc1ccnc(-c2cccnc2)c1 [IHSF 086, (E)-3-([2,3′]Bipyridmyl-4-ylcarbamoyl)-acrylic acid ethyl ester] |  | 47% | 78% |  |  | 

The next lines start with results.

IC50 (HSF1; Z74 cells) | inhibition at 12.5 µM (HSF1; [1]) | inhibition at 25 µM (HSF1; [2]) | HSE DNA-binding activity (EMSA) in the presence of IHSF (HSE DNA-binding activity) | Compound | inhibition at 12.5 µM (HSF1) | inhibition at 25 µM (HSF1)
 | 25% | 31% |  | O=C(/C=C/c1ncccn1)Nc1nccs1 [IHSF 088, (E)-3-(Pyrimidin-2-yl)-N-(thiazol-2-yl)acrylamide] |  | 
17.9 µM | 41% | 61% |  | O=C(/C=C/c1ncno1)Nc1nccs1 [IHSF 089, (E)-3-(1,2,4-Oxadiazol-5-yl)-N-(thiazol-2-yl)acrylamide] |  | 
5.4 µM | 78% | 98% |  | O=C(/C=C/C1=NCCCO1)Nc1nccs1 [IHSF 090, (E)-3-(5,6-Dihydro-4H-[1,3]oxazin-2-yl)-N-thiazol-2-yl-acrylamide] |  | 
> 25 µM | 22% | 27% |  | O=C(/C=C/c1nnco1)Nc1nccs1 [IHSF 091, (E)-3-(1,3,4-Oxadiazol-2-yl)-N-(thiazol-2-yl)acrylamide] |  | 
4.7 µM | 90% | 99% |  | O=C(/C=C/C1=NCCO1)Nc1nccs1 [IHSF 092, (E)-3-(4,5-Dihydro-oxazol-2-yl)-N-thiazol-2-yl-acrylamide] |  | 
 | 6% | 44% |  | CCCC(=O)/C=C/C(=O)Nc1nccs1 [IHSF 095, (E)-4-Oxo-N-(thiazol-2-yl)hept-2-enamide] |  | 
18 µM | 17% | 95% |  | CCOC(=O)/C=C/C(=O)N(CCc1ccncc1)c1nccs1 [IHSF 099, (E)-3-[(2-Pyridin-4-yl-ethyl)-thiazol-2-yl-carbamoyl]-acrylic acid ethyl ester] |  | 
> 25 µM | -30% | 48% |  | CCOC(=O)/C=C/C(=O)N(CCN1CCOCC1)c1nccs1 [IHSF 101, (E)-3-[(2-Morpholin-4-yl-ethyl)-thiazol-2-yl-carbamoyl]-acrylic acid ethyl ester] |  | 
10.8 µM | 69% | 96% |  | CCOC(=O)/C=C/C(=O)Nc1nc(C(=O)OC)c(-c2ccccc2)s1 [IHSF 105, 2-((E)-3 -Ethoxycarbonyl-acryloylamino)-5-phenyl-thiazole-4-carboxylic acid methyl ester] |  | 
10.6 µM | 62% | 92% |  | CCOC(=O)/C=C/C(=O)Nc1nc(CC)c(-c2ccccc2)s1 [IHSF 107, (E)-3-(4-Ethyl-5-phenyl-thiazol-2-ylcarbamoyl)-acrylic acid ethyl ester] |  | 
19.6 µM | -6% | 89% |  | CCOC(=O)/C=C/C(=O)N(CCc1cn(C)cn1)c1nccs1 [IHSF 108] |  | 
11.2 µM | 53% | 88% |  | CCOC(=O)/C=C/C(=O)Nc1nc(C(N)=O)c(-c2ccccc2)s1 [IHSF 109, (E)-3-(4-Carbamoyl-5-phenyl-thiazol-2-ylcarbamoyl)-acrylic acid ethyl ester] |  | 
> 25 µM | 13% | 26% |  | CCOC(=O)/C=C/C(=O)N(CCc1ccccn1)c1nccs1 [IHSF 112, (E)-3-[(2-Pyridin-2-yl-ethyl)-thiazol-2-yl-carbamoyl]-acrylic acid ethyl ester] |  | 
